SMILES strings stand for the structures.

The test concerns Wnt signaling. Briefly: Wnt-Luc reporter assay for pathway inhibition of Wnt signaling. It counts as cell-based, mouse (TM3 Wnt-Luc) or human (293 Wnt-Luc); not stated which. The settings on record: Wnt-Luc reporter cells co-cultured with L-cell Wnt3a cells, 24 hours, luciferase signal reduced by 50%. The method, then:
This example provides a method that is useful for evaluating test compounds for inhibition of Wnt signaling.
Mouse leydig cell TM3 cells (obtained from American Type Culture Collection, ATCC, Manassas, Va.) are cultured in 1:1 mixture of Ham's F12 medium and Dulbecco's modified Eagle's medium (Gibco/Invitrogen, Carlsbad, Calif.) supplemented with 2.5% FBS (Gibco/Invitrogen, Carlsbad, Calif.) and 5% horse serum (Gibco/Invitrogen, Carlsbad, Calif.), 50 unit/mL penicillin and 50 μg/mL of streptomycin (Gibco/Invitrogen, Carlsbad, Calif.) at 37° C. with 5% CO2 in air atmosphere. TM3 cells in a 10 cm dish are co-transfected with 8 μg of STF-reporter plasmid containing a luciferase gene driven by Wnt-responsive elements and 2 μg of pcDNA3.1-Neo (Gibco/Invitrogen, Carlsbad, Calif.) with 30 μL of FuGENE6 (Roche Diagnostics, Indianapolis, Ind.) following the manufacturer's protocol. Stable cell lines (TM3 Wnt-Luc) were selected with 400 μg/mL of G418 (Gibco/Invitrogen, Carlsbad, Calif.). The TM3 Wnt-Luc cells and L-cell Wnt3a cells (obtained from American Type Culture Collection, ATCC, Manassas, Va.; cultured in Dulbecco's modified Eagle's medium (Gibco/Invitrogen, Carlsbad, Calif.) supplemented with 10% FBS (Gibco/Invitrogen, Carlsbad, Calif.) and 50 unit/mL penicillin and 50 μg/mL of streptomycin (Gibco/Invitrogen, Carlsbad, Calif.) at 37° C. with 5% CO2 in air atmosphere) are trypsinized and co-cultured into a 384-well plate with DMEM medium supplemented with 2% FBS, and treated with different concentrations of a compound of the invention. After 24 hours, the firefly luciferase activities are assayed with the Bright-Glo™ Luciferase Assay System (Promega, Madison, Wis.). The IC50 is measured when the effect of the compound reduces the luminescence signal by 50%.
This example provides another method that is useful for evaluating test compounds for inhibition of Wnt signaling.
Human embryonic kidney 293 cells (obtained from American Type Culture Collection, ATCC, Manassas, Va.) are cultured in DMEM medium (Gibco/Invitrogen, Carlsbad, Calif.) supplemented with 10% FBS (Gibco/Invitrogen, Carlsbad, Calif.), 50 unit/mL penicillin and 50 μg/mL of streptomycin (Gibco/Invitrogen, Carlsbad, Calif.) at 37° C. with 5% CO2 in air atmosphere. 293 cells in a 10 cm dish are co-transfected with 8 μg of STF-reporter plasmid containing a luciferase gene driven by Wnt-responsive elements and 2 μg of pcDNA3.1-Neo (Gibco/Invitrogen, Carlsbad, Calif.) with 30 μL of FuGENE6 (Roche Diagnostics, Indianapolis, Ind.) following the manufacturer's protocol. Stable cell lines (293 Wnt-Luc) were selected with 400 μg/mL of G418 (Gibco/Invitrogen, Carlsbad, Calif.). The 293 Wnt-Luc cells and L-cell Wnt3a cells (obtained from American Type Culture Collection, ATCC, Manassas, Va.) are trypsinized and co-cultured into a 384-well plate with DMEM medium supplemented with 2% FBS, and treated with different concentrations of a compound of the invention. After 24 hours, the firefly luciferase activities are assayed with the Bright-Glo™ Luciferase Assay System (Promega, Madison, Wis.). The IC50 is measured when the effect of the compound reduces the luminescence signal by 50%.
A general note: Reporter assays use an easily measured gene product as a stand-in for the process of interest.
Regarding `O=C(NCc1ccc(-c2ccnnc2)cc1)c1ccc(-c2ccccc2)cc1` [compound 1, N-(4-(pyridazin-4-yl)benzyl)biphenyl-4-carboxamide], the IC50 (commonly the concentration needed to halve the response being measured) is 1.9 nM.
For the compound `O=C(NCc1ccc(-c2ccnnc2)cc1)c1ccc(-c2cccc(F)c2)cc1` [compound 2, 4-(3-fluorophenyl)-N-{[4-(pyridazin-4-yl)phenyl]methyl}benzamide], the IC50 worked out at 0.95 nM.
Take `O=C(NCc1ccc(N2CCS(=O)(=O)CC2)nc1)c1ccc(-c2cccc(F)c2)cc1` [compound 3, N-((6-(1,1-dioxidothiomorpholino)pyridin-3-yl)methyl)-3′-fluoro-[1,1′-biphenyl]-4-carboxamide]: the IC50 was determined as 2.3 nM.
With `O=C(NCc1ccc(N2CCS(=O)(=O)CC2)nc1)c1ccc(-c2cccc(F)c2)nc1` [compound 4, N-((6-(1,1-dioxidothiomorpholino)pyridin-3-yl)methyl)-6-(3-fluorophenyl)nicotinamide], inhibition was half-maximal at 2.4 nM (IC50).
Consider `O=C(NCc1ccc(N2CCS(=O)(=O)CC2)nc1)c1ccc(-c2cccnc2)nc1` [compound 5, N-((6-(1,1-dioxidothiomorpholino)pyridin-3-yl)methyl)-[2,3′-bipyridine]-5-carboxamide], for which the IC50 amounted to 129 nM.
To `O=C(NCc1ccc(N2CCS(=O)(=O)CC2)nc1)c1ccc(-c2cccc(F)c2)cn1` [compound 6, 5-(3-Fluorophenyl)-N-((6-(1,1-dioxide-thiomorpholino)pyridin-3-yl)methyl)picolinamide] belongs 0.9 nM.
`COC(=O)N1CCN(c2ccc(C(=O)NCc3ccc(N4CCS(=O)(=O)CC4)nc3)cc2)CC1` [compound 7, methyl 4-(4-(((6-(1,1-dioxidothiomorpholino)pyridin-3-yl)methyl)carbamoyl)phenyl)piperazine-1-carboxylate] returned an IC50 of 19 nM.
`O=C(NCc1ccc(N2CC[S+]([O-])CC2)nc1)c1ccc(-c2cccc(F)c2)cc1` [compound 8, 3′-fluoro-N-((6-(1-oxide-thiomorpholino)pyridin-3-yl)methyl)biphenyl-4-carboxamide]: half-maximal inhibition (IC50) required 0.7 nM.
`Cc1cc(-c2ccc(CNC(=O)c3ccc(-c4ccccc4)cc3)cc2)ccn1` [compound 9, N-{[4-(2-methylpyridin-4-yl)phenyl]methyl}-4-phenylbenzamide]: the IC50 worked out at 0.06 nM.
In the case of `O=C(NCc1ccc(-c2cccnc2)cc1)c1ccc(-c2ccccc2)cc1` [compound 10, N-(4-(pyridin-3-yl)benzyl)biphenyl-4-carboxamide] it was 12.5 nM; in that of `Cc1cc(-c2ccc(CNC(=O)c3ccc(-c4ccccc4)cn3)cc2)ccn1` [compound 11, N-{[4-(2-methylpyridin-4-yl)phenyl]methyl}-5-phenylpyridine-2-carboxamide], 0.2 nM; in that of `Cc1cc(-c2ccc(CNC(=O)c3ccc(-c4cccc(F)c4)cc3)cc2)ccn1` [compound 12, 4-(3-fluorophenyl)-N-{[4-(2-methylpyridin-4-yl)phenyl]methyl}benzamide], 0.06 nM.
The compound `Cc1cc(-c2ccc(CNC(=O)c3ccc(-c4ccccn4)cc3)cc2)ccn1` [compound 13, N-(4-(2-methylpyridin-4-yl)benzyl)-4-(pyridin-2-yl)benzamide] came in with an IC50 of 0.1 nM.
With `COC(=O)N1CCN(c2ccc(C(=O)NCc3cnc(-c4ccnc(C(F)(F)F)c4)c(F)c3)cn2)CC1` [compound 14, methyl 4-{5-[({5-fluoro-6-[2-(trifluoromethyl)pyridin-4-yl]pyridin-3-yl}methyl)carbamoyl]pyridin-2-yl}piperazine-1-carboxylate], 0.44 nM corresponded to half-maximal inhibition (IC50).
`Cc1cc(-c2ccc(CNC(=O)c3ccc(-c4cncnc4)cc3)cc2F)ccn1` [compound 15, N-(3-fluoro-4-(2-methylpyridin-4-yl)benzyl)-4-(pyrimidin-5-yl)benzamide] showed an IC50 of 0.01 nM.
`Cc1cc(-c2ccc(CNC(=O)c3ccc(-c4cncnc4)cc3)cc2)ccn1` [compound 16, N-{[4-(2-methylpyridin-4-yl)phenyl]methyl}-4-(pyrimidin-5-yl)benzamide] displayed an IC50 of 0.05 nM.
The compound `Cc1cc(-c2ccc(CNC(=O)c3ccc(-c4cnccn4)cc3)cc2)ccn1` [compound 17, N-{[4-(2-methylpyridin-4-yl)phenyl]methyl}-4-(pyrazin-2-yl)benzamide] showed an IC50 of 0.06 nM.
In the case of `Cc1cc(-c2ccc(CNC(=O)c3ccc(-c4cnccn4)cc3)cn2)ccn1` [compound 18, N-((2′-methyl-[2,4′-bipyridin]-5-yl)methyl)-4-(pyrazin-2-yl)benzamide] it was 0.2 nM; in that of `Cc1cc(-c2ccc(CNC(=O)c3ccc(-c4ccnnc4)nc3)cc2)ccn1` [compound 19, N-{[4-(2-methylpyridin-4-yl)phenyl]methyl}-6-(pyridazin-4-yl)pyridine-3-carboxamide], 27 nM.
In the case of `CC(=O)N1CCN(c2ccc(C(=O)NCc3ccc(-c4ccnc(C)c4)c(F)c3)cn2)CC1` [compound 20, 6-(4-Acetylpiperazin-1-yl)-N-(3-fluoro-4-(2-methylpyridin-4-yl)benzyl)nicotinamide] it was 6.4 nM; in that of `Cn1cc(-c2ccc(CNC(=O)c3ccc(-c4cnccn4)cc3)cc2F)ccc1=O` [compound 21, N-(3-fluoro-4-(1-methyl-6-oxo-1,6-dihydropyridin-3-yl)benzyl)-4-(pyrazin-2-yl)benzamide], 6.4 nM; in that of `CC(=O)N1CCN(c2ccc(C(=O)NCc3ccc(-c4ccnc(C)c4)c(F)c3)nc2)CC1` [compound 22, 5-(4-acetylpiperazin-1-yl)-N-{[3-fluoro-4-(2-methylpyridin-4-yl)phenyl]methyl}pyridine-2-carboxamide], 8.5 nM.
Compound `Cc1cc(-c2ccc(CNC(=O)c3ccc(-c4cccc(F)c4)cc3)cn2)ccn1` [compound 23, 4-(3-fluorophenyl)-N-{[6-(2-methylpyridin-4-yl)pyridin-3-yl]methyl}benzamide] displayed an IC50 of 0.1 nM.
For the compound `O=C(NCc1ccc(-c2ccnc(F)c2)nc1)c1ccc(-c2cnccn2)cc1` [compound 24, N-((2′-fluoro-[2,4′-bipyridin]-5-yl)methyl)-4-(pyrazin-2-yl)benzamide], the IC50 is 0.8 nM.
Regarding `CN(C)c1ccc(-c2ccc(C(=O)NCc3ccc(-c4ccnc(F)c4)nc3)cn2)cn1` [compound 25, 6-[6-(dimethylamino)pyridin-3-yl]-N-{[6-(2-fluoropyridin-4-yl)pyridin-3-yl]methyl}pyridine-3-carboxamide], the IC50 amounted to 1.4 nM.
The compound `Cc1cc(-c2ccc(CNC(=O)c3ccc(-c4cccc(F)c4)cn3)cn2)ccn1` [compound 26, 5-(3-fluorophenyl)-N-{[6-(2-methylpyridin-4-yl)pyridin-3-yl]methyl}pyridine-2-carboxamide] registered an IC50 of 0.5 nM.
For `Cc1cc(-c2ccc(CNC(=O)c3ccc(-c4cccc(F)c4)nc3)cn2)ccn1` [compound 27, 6-(3-fluorophenyl)-N-{[6-(2-methylpyridin-4-yl)pyridin-3-yl]methyl}pyridine-3-carboxamide], the IC50 worked out at 0.2 nM.
In turn, `O=C(NCc1ccc(-c2ccnc(C(F)(F)F)c2)cc1)c1ccc(-c2cnccn2)cc1` [compound 28, 4-(Pyrazin-2-yl)-N-(4-(2-(trifluoromethyl)pyridin-4-yl)benzyl)benzamide] gave an IC50 of 0.9 nM.
`Cc1cc(-c2ccc(CNC(=O)c3ccc(-c4cccc(N(C)C)c4)cn3)cn2)ccn1` [compound 29, 5-[3-(dimethylamino)phenyl]-N-{[6-(2-methylpyridin-4-yl)pyridin-3-yl]methyl}pyridine-2-carboxamide] returned an IC50 of 43 nM.
Regarding `Cc1cc(CNC(=O)c2ccc(-c3cccc(F)c3)cn2)cnc1-c1ccnc(F)c1` [compound 30, N-((2′-fluoro-3-methyl-2,4′-bipyridin-5-yl)methyl)-5-(3-fluorophenyl)picolinamide], the IC50 worked out at 0.17 nM.

(Values after patent US9181235B2, “Substituted pyridines for modulating the WNT signaling pathway” (NOVARTIS AG, priority 2010, dated 2015).)
